Marks after values point to notes of the source that are not given here.
Key:
PC3 tumors = assay: PC-3 xenograft, tumor volume (monotherapy); format: in vivo, mice; conditions: 15 mg/kg i.p.
Description: One million PC-3 or LNCaP cells were injected subcutaneously in athymic mice. For LNCaP xenografts, when PSA values exceeded 50 ng/ml, mice were castrated and randomly selected for treatment with ATL1101 or control oligodeoxynucleotide (15 mg/kg) injected i.p. once daily for 7 days and 3 times per week thereafter. Blood samples were obtained from the tail vein of the mice once weekly to measure serum PSA by ELISA. For PC-3 xenografts, when tumors reached 100 mm^3, mice were randomly selected and treated with the same protocol as LNCaP.
The effects of IGF-IR antisense oligonucleotide treatment in LNCaP and PC-3 tumors in vivo are show in FIGS. 5A-5C. LNCaP cells were inoculated s.c. and when PSA values exceeded 50 ng/ml, mice were castrated and randomly selected for treatment with ATL1101 or control oligodeoxynucleotide (15 mg/kg) injected i.p. once daily for 7 days and 3 times per week thereafter. Blood samples were obtained from the tail vein of the mice once weekly to measure serum PSA by ELISA. PC-3 cells were inoculated s.c. and when tumors reached 100 mm^3, mice were randomly selected for treatment with the same protocol as LNCaP. Each point represents the mean tumor volume in each group containing 10 mice; bars, SE. * differs from control oligodeoxynucleotide treatment group (p<0.05) by Student's t test.

LNCaP cells = assay: LNCaP cell cycle and apoptosis, flow cytometry with propidium iodide; format: cell-based, human; conditions: 100 nM
Description: (§1) Established methods were used to test the activity of IGF-IR antisense oligonucleotide on LNCaP and PC-3 cell growth (crystal violet assay) and apoptosis (FACS). Dose- and sequence-specific suppression of IGF-IR mRNA and protein expression in ATL1101-treated LNCaP and PC3 PC cell lines in vitro were observed by QT-PCR and western blotting. Effects of the IGF-IR antisense oligonucleotide on various putative targets, including IGF-IR and downstream targets were evaluated using western blotting.
The Effect of IGF-IR silencing with IGF-IR antisense oligonucleotide (ATL1101) on LNCaP and PC3 cell apoptosis and cell cycle is shown in FIGS. 4A(i)-(ii), 4B, 4C(i)-(ii), and Table 2. Cells were transfected with indicated concentrations of ATL1101, control oligodeoxynucleotide or oligofectamine as in FIGS. 1A(i)-1B(ii). Two days after treatment, cell cycle analysis was determined by flow cytometry using propidium iodide staining. […] In FIGS. 4C(i)-(ii), LNCaP (FIG. 4C (i)) or PC-3 (FIG. 4C (ii)) cells were transfected with indicated concentration of ATL1101 or control oligodeoxynucleotide (ISIS 306064) for two days. Cells were then cultured in FBS media for one day and in serum-free media for one day. Whole cell lysates (30 μg) were subjected to SDS-PAGE and immunoblotted to assess Cyclin D1, Cyclin E, p-RB, total Rb, and p27 protein levels. Oligo, oligofectamine treated cells only.

IGF-IRβ, p-AKT, pERK1/2 = assay: PC3 xenograft tumor proteins, western blotting; format: in vivo; conditions: after 7 days of treatment; two of three mice
Description: Total PC3 xenograft tumor proteins were extracted after the treatment of IGFI-R antisense oligonucleotide or control oligodeoxynucleotide for 7 days and IGF-IRβ, p-AKT, pERK1/2, and vinculin protein levels were analyzed by western blotting. Tumor growth ratio of corresponding tumors are also shown (FIG. 5E).

IGF-IR mRNA = IGF-IR mRNA expression in transfected LNCaP and PC-3 cells, quantitative RT-PCR; format: cell-based, human; conditions: one day after treatment
Description: as §1
FIGS. 1A(i)-1A(ii) show the sequence-specific and dose-dependent suppression of IGF-IR mRNA expression levels by ATL1101 in LNCaP (FIG. 1A (i)) and PC-3 (FIG. 1A (ii)) cells. […] One day after treatment, total RNA was extracted, and IGF-IR mRNA expression was analyzed by quantitative RT-PCR. IGF-IR mRNA levels were normalized to levels of GAPDH mRNA and expressed here as mean±SE. ***, p<0.001 differ from control (oligofectamine only) by Student's t test. “Control” cells were treated with oligofectamine only. In LNCaP cells, IGF-IR expression was >70% suppressed by 10 nM ATL1101 and >90% at 200 nM ATL1101. In PC3 cells, IGF-IR expression was suppressed ˜40% at 10 nM ATL1101, >50% at 50 nM ATL1101 and ˜80% at 200 nM. Control oligodeoxynucleotide (ISIS 306064) did suppress IGF-IR mRNA expression but by less than 25% at maximal doses tested

Substance: cgaaggaaacaatactccga (CGAAGGAAACAATACTCCGA; 2'-MOE modified, pattern not given here) [ISIS 175317, 2′-MOE-modified IGF-IR antisense oligonucleotide, also known as ATL1101]
- tumor volume compared to control oligodeoxynucleotide (PC3 tumors): significantly reduced
- % of total cells, G0/G1 (LNCaP cells; CSS condition): 13.3%
- % of total cells, G2/M (LNCaP cells; CSS condition): 1.2%
- % of total cells, S (LNCaP cells; CSS condition): 1.2%
- % of total cells, Sub G0/G1 (LNCaP cells; CSS condition): 84.3%
- subG0/G1 + G0/G1:S + G2/M (LNCaP cells; CSS condition): 40.7***
- % of total cells, G0/G1 (LNCaP cells; FBS condition): 32.8%
- % of total cells, G2/M (LNCaP cells; FBS condition): 2.8%
- % of total cells, S (LNCaP cells; FBS condition): 3.4%
- subG0/G1 + G0/G1:S + G2/M (LNCaP cells; FBS condition): 15.1**
- % of total cells, Sub G0/G1 (LNCaP cells; FBS condition, two days after treatment): 61%
- IGF-IR expression in tumor (IGF-IRβ, p-AKT, pERK1/2): decreased
- activation of AKT and ERK1/2 in tumor (IGF-IRβ, p-AKT, pERK1/2): suppressed
- suppression of IGF-IR mRNA expression (IGF-IR mRNA; LNCaP cells, 10 nM): > 70%
- suppression of IGF-IR mRNA expression (IGF-IR mRNA; LNCaP cells, 200 nM): > 90%
- suppression of IGF-IR mRNA expression (IGF-IR mRNA; PC3 cells, 10 nM): ~40%
- suppression of IGF-IR mRNA expression (IGF-IR mRNA; PC3 cells, 50 nM): > 50%
- suppression of IGF-IR mRNA expression (IGF-IR mRNA; PC3 cells, 200 nM): ~80%

Source: patent US9084770B2, “Modulation of insulin like growth factor I receptor expression in cancer” (Antisense Therapeutics, Ltd., priority 2008, dated 2015)
